Experimental data published in US20250230193A1, “CYCLIC COMPOUND HAVING SELECTIVE KRAS INHIBITORY EFFECT ON HRAS AND NRAS” (CHUGAI SEIYAKU KABUSHIKI KAISHA, priority 2022, published 2025).

What was measured:
[1] = test system: human lung cancer strain NCI-H441; assay: cells; details: NCI-H441, 96 h, read-out: NCI-H441 IC50 (nM)
[2] = target: GDP-bound HRAS wild-type protein (Homo sapiens, UniProt P01112); assay: Binding to HRAS by surface plasmon resonance (SPR), Single Cycle Kinetics; details: SPR; KD ratio class
[3] = target: GDP-bound NRAS wild-type protein (Homo sapiens, UniProt P01111); assay: Binding to NRAS by surface plasmon resonance (SPR), Single Cycle Kinetics; details: SPR; KD ratio class
Sequence of GDP-bound NRAS wild-type protein (P01111 whole entry): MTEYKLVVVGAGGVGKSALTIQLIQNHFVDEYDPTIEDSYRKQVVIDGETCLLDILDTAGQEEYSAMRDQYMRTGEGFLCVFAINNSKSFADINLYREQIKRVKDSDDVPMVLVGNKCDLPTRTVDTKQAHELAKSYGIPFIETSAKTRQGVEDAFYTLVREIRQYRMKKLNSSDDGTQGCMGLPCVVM

Sequence of GDP-bound HRAS wild-type protein (P01112 whole entry): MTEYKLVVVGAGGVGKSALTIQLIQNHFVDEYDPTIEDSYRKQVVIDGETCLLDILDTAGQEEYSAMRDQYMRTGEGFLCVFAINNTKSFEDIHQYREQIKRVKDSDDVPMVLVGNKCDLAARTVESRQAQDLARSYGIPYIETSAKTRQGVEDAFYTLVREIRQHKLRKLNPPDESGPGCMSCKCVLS

| SMILES | IC50 [1] [nM] | HRAS/KRAS (ratio of KD value for GDP-bound HRAS wild-type protein to KD value for KRAS) [2] | NRAS/KRAS (ratio of KD value for GDP-bound NRAS wild-type protein to KD value for KRAS) [3] |
| --- | --- | --- | --- |
| CCCC[C@H]1C(=O)N[C@@H]([C@@H](C)CC)C(=O)N(C)CC(=O)N(C)[C@H]2C/C=C\CCN(C2=O)[C@@H](Cc2ccc(C(F)(F)F)cc2)C(=O)N(C)CC(=O)N[C@@H](CCc2ccc(C(F)(F)F)c(OC)c2)C(=O)N2C[C@H](OCC)C[C@H]2C(=O)NC2(CC(C)(C)C2)C(=O)N(C)[C@@H](C2CCCC2)C(=O)N(C)[C@H](C(=O)N(C)C)CC(=O)N1C [PP1561] | 2.7 | B (a compound having 3 or more and less than 10 is denoted as B) | A (a compound having 10 or more and less than 20 is denoted as A) |
| CCO[C@@H]1C[C@H]2C(=O)NC3(CC(C)(C)C3)C(=O)N(C)[C@@H](C3CCCC3)C(=O)N(C)[C@H](C(=O)N(C)C)CC(=O)N(C)[C@@H](CC3CC3)C(=O)N[C@@H]([C@@H](C)CC)C(=O)N(C)CC(=O)N(C)[C@H]3C/C=C\CCN(C3=O)[C@@H](Cc3ccc(C(F)(F)F)cc3)C(=O)N(C)CC(=O)N[C@@H](CCc3ccc(C(F)(F)F)c(OC)c3)C(=O)N2C1 [PP1563] | 2.6 | A (a compound having 10 or more and less than 20 is denoted as A) | A (a compound having 10 or more and less than 20 is denoted as A) |
| CCO[C@@H]1C[C@H]2C(=O)NC3(CC(C)(C)C3)C(=O)N(C)[C@@H](C3CCCC3)C(=O)N(C)[C@H](C(=O)N(C)C)CC(=O)N(C)[C@@H](CC3CCC3)C(=O)N[C@@H]([C@@H](C)CC)C(=O)N(C)CC(=O)N(C)[C@H]3C/C=C\CCN(C3=O)[C@@H](Cc3ccc(C(F)(F)F)cc3)C(=O)N(C)CC(=O)N[C@@H](CCc3ccc(C(F)(F)F)c(OC)c3)C(=O)N2C1 [PP1564] | 3 | A (a compound having 10 or more and less than 20 is denoted as A) | A (a compound having 10 or more and less than 20 is denoted as A) |
| CCO[C@@H]1C[C@H]2C(=O)NC3(CC(C)(C)C3)C(=O)N(C)[C@@H](C3CCCC3)C(=O)N(C)[C@H](C(=O)N(C)C)CC(=O)N(C)[C@@H](CC3CCCC3)C(=O)N[C@@H]([C@@H](C)CC)C(=O)N(C)CC(=O)N(C)[C@H]3C/C=C\CCN(C3=O)[C@@H](Cc3ccc(C(F)(F)F)cc3)C(=O)N(C)CC(=O)N[C@@H](CCc3ccc(C(F)(F)F)c(OC)c3)C(=O)N2C1 [PP1565] | 6.5 | B (a compound having 3 or more and less than 10 is denoted as B) | A (a compound having 10 or more and less than 20 is denoted as A) |

Molecules with a lower IC50 [1], results first:

| IC50 [1] [nM] | SMILES | HRAS/KRAS (ratio of KD value for GDP-bound HRAS wild-type protein to KD value for KRAS) [2] | NRAS/KRAS (ratio of KD value for GDP-bound NRAS wild-type protein to KD value for KRAS) [3] |
| --- | --- | --- | --- |
| 1.8 | CCC[C@H]1C(=O)N[C@@H]([C@@H](C)CC)C(=O)N(C)CC(=O)N(C)[C@H]2C/C=C\CCN(C2=O)[C@@H](Cc2ccc(C(F)(F)F)cc2)C(=O)N(C)CC(=O)N[C@@H](CCc2ccc(C(F)(F)F)c(OC)c2)C(=O)N2C[C@H](OCC)C[C@H]2C(=O)NC2(CC(C)(C)C2)C(=O)N(C)[C@@H](C2CCCC2)C(=O)N(C)[C@H](C(=O)N(C)C)CC(=O)N1C [PP1560] | B (a compound having 3 or more and less than 10 is denoted as B) | A (a compound having 10 or more and less than 20 is denoted as A) |
| 1.7 | CCO[C@@H]1C[C@H]2C(=O)NC3(CC(C)(C)C3)C(=O)N(C)[C@@H](C3CCCC3)C(=O)N(C)[C@H](C(=O)N(C)C)CC(=O)N(C)[C@@H](CC(C)C)C(=O)N[C@@H]([C@@H](C)CC)C(=O)N(C)CC(=O)N(C)[C@H]3C/C=C\CCN(C3=O)[C@@H](Cc3ccc(C(F)(F)F)cc3)C(=O)N(C)CC(=O)N[C@@H](CCc3ccc(C(F)(F)F)c(OC)c3)C(=O)N2C1 [PP1562] | A (a compound having 10 or more and less than 20 is denoted as A) | A (a compound having 10 or more and less than 20 is denoted as A) |
